ChEMBL document CHEMBL3120074, “p-Terphenyl O-β-glucuronides, DNA topoisomerase inhibitors from Streptomyces sp. LZ35ΔgdmAI” (2014)
Activity calls are given as the source filed them. The calls are words filed in the database; no cut-off is given here.

Tests used:
Globisporangium ultimum = assay: Antifungal activity against Pythium ultimum PR9.00318 at 30 ug/disc after 48 hrs by paper disc diffusion assay; type: functional, organism-based
[1] = target: DNA topoisomerase 2-alpha (Homo sapiens) (UniProt P11388); assay: Inhibition of human recombinant DNA topoisomerase 2alpha-mediated relaxation of supercoiled pBR322 DNA at 100 uM after 30 mins by agarose gel electrophoresis
[2] = Antifungal activity against Monilia albican ATCC 10231 at 30 ug/disc after 48 hrs by paper disc diffusion assay; type: functional
Bos taurus = species: Bos taurus; assay: Inhibition of calf thymus DNA topoisomerase 1-mediated relaxation of supercoiled pBR322 DNA at 100 uM after 30 mins by agarose gel electrophoresis
Rhizoctonia solani = assay: Antifungal activity against Rhizoctonia solani GXE4 at 30 ug/disc after 48 hrs by paper disc diffusion assay; type: functional, organism-based
[3] = test system: Mycolicibacterium smegmatis; assay: Antibacterial activity against Mycobacterium smegmatis MC2 155 at 30 ug/disc after 24 hrs by paper disc diffusion assay; type: functional; settings: str. MC2 155, 24 h, read-out: DIZ
Bacillus subtilis = assay: Antibacterial activity against Bacillus subtilis ACCC 11060 at 30 ug/disc after 24 hrs by paper disc diffusion assay; type: functional; settings: ACCC 11060, 24 h, read-out: DIZ

DNA topoisomerase 2-alpha (Homo sapiens), sequence (P11388 whole entry, the tested form may be a part): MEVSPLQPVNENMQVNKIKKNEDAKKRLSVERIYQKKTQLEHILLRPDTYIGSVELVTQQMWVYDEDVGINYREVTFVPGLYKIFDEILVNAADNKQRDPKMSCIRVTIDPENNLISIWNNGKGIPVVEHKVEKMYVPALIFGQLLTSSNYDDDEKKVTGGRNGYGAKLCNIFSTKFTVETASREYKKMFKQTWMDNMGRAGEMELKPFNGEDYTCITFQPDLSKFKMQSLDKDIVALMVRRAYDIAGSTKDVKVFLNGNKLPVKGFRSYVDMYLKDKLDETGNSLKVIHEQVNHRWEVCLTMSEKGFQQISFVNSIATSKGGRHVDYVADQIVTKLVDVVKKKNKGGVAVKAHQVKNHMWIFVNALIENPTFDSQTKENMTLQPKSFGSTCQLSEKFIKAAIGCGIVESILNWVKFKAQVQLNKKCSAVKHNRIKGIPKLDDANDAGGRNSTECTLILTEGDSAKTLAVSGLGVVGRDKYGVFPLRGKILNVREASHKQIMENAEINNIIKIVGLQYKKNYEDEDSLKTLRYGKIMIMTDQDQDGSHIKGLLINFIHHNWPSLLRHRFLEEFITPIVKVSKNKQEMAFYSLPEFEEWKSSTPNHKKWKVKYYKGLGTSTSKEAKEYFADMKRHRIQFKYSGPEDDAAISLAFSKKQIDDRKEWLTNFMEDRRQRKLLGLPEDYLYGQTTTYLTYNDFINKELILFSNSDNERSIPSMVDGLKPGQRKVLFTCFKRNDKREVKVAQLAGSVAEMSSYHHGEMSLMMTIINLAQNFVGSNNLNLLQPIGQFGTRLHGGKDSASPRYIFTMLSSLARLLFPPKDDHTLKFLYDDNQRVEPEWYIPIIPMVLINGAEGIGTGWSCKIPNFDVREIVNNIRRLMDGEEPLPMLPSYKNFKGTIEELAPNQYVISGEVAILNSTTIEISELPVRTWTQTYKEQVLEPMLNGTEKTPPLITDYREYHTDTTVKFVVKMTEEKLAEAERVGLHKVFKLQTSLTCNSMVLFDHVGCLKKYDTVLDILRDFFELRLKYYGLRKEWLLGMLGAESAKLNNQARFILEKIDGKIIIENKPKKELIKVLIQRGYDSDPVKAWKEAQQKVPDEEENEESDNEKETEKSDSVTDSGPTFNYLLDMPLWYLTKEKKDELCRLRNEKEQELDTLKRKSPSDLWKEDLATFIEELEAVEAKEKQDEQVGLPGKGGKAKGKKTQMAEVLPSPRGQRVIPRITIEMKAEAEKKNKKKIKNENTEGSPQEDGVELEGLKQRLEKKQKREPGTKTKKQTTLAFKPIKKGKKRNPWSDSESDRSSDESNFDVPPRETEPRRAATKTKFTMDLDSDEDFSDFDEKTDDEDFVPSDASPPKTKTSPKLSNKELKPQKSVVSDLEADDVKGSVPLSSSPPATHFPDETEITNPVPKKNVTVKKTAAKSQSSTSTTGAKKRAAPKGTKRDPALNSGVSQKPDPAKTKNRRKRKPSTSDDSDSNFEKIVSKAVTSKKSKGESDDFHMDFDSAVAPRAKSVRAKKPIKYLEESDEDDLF

For `COC(=O)[C@H]1O[C@@H](Oc2c(-c3ccccc3)cc(O)c(-c3ccccc3)c2O)[C@H](O)[C@@H](O)[C@@H]1O`, the Activity (Globisporangium ultimum) was “inactive”, the inhibition [1] was “Active” and the Activity [2] was “inactive”. For the same compound, the inhibition (Bos taurus) was “Active”, the Activity (Rhizoctonia solani) was “inactive” and the zone of inhibition at 30 µg/disc [3] was 12 mm. It also gave a zone of inhibition at 30 µg/disc (Bacillus subtilis) of 14 mm.

With `O=C(O)[C@H]1O[C@@H](Oc2c(-c3ccccc3)cc(O)c(-c3ccccc3)c2O)[C@H](O)[C@@H](O)[C@@H]1O` the Activity (Globisporangium ultimum) was “inactive”, the inhibition [1] was “Active” and the Activity [2] was “inactive”. The Activity (Rhizoctonia solani) was “inactive”, the zone of inhibition at 30 µg/disc [3] was 11.2 mm and the zone of inhibition at 30 µg/disc (Bacillus subtilis) was 15.8 mm.

With `COc1c(-c2ccccc2)cc(O[C@@H]2O[C@H](C(=O)O)[C@@H](O)[C@H](O)[C@H]2O)c(-c2ccccc2)c1O` the Activity (Globisporangium ultimum) was “inactive”, the inhibition [1] was “Active” and the Activity [2] was “inactive”. For the same compound, the Activity (Rhizoctonia solani) was “inactive”.

With `Cn1c(=O)sc2c(-c3ccccc3)c(O)c(O[C@@H]3O[C@H](C(=O)O)[C@@H](O)[C@H](O)[C@H]3O)c(-c3ccccc3)c21` the Activity (Globisporangium ultimum) was “inactive”, the inhibition [1] was “inactive” and the Activity [2] was “inactive”. For the same compound, the inhibition (Bos taurus) was “inactive” and the Activity (Rhizoctonia solani) was “inactive”.

For `O=C(O)[C@H]1O[C@@H](Oc2c(O)c(-c3ccccc3)c3scnc3c2-c2ccccc2)[C@H](O)[C@@H](O)[C@@H]1O`, the Activity (Globisporangium ultimum) was “inactive”, the inhibition [1] was “inactive” and the Activity [2] was “inactive”. For the same compound, the inhibition (Bos taurus) was “inactive” and the Activity (Rhizoctonia solani) was “inactive”.
